US20250171432A1, “COMPOUNDS AND METHODS OF USE” (Tango Therapeutics, Inc., priority 2022, published 2025)

Key:
Type in all cases: cell-based
[1] = test system: SDMA (PRMT5 activity) in HAP1 MTAP-intact cell line; experiment: SDMA in-cell western assay, HAP1 MTAP-intact; conditions: Homo sapiens, HAP1, 24 h, SDMA in-cell western, HAP1 MTAP-intact cells, 24 hours compound incubation
[2] = test system: HAP1 MTAP-deleted cell line; experiment: Viability assay (CellTiter-Glo), HAP1 MTAP-deleted; conditions: Homo sapiens, 168 h, HAP1 MTAP-deleted cells, 7 days
Summary of the method: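 HAP1 MTAP-deleted and MTAP-intact cells seeded, then dosed next day (n=3, 0.2% DMSO) and grown 7 days. Viability by CellTiter-Glo luminescence, expressed as % of DMSO control per cell line.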

[3] = test system: SDMA (PRMT5 activity) in HAP1 MTAP-deleted cell line; experiment: SDMA in-cell western assay, HAP1 MTAP-deleted; conditions: for IC50 / IC90: Homo sapiens, SDMA in-cell western, HAP1 MTAP-deleted cells, 24 hours compound incubation; for Hap1 MTAP intact/deleted ratio: ratio of SDMA IC50 in HAP1 MTAP-intact to HAP1 MTAP-deleted cell line

Row | Compound | IC50 [1] [nM] | IC50 [3] [nM] | IC90 [3] [nM] | IC50 [2] [nM] | Hap1 MTAP intact/deleted ratio [3]
1 | COc1ncc(NC(=O)C(=O)N2C[C@@H](C)CC[C@@H]2c2ccc3sc(C45CCC(CC4)N(C)C5)nc3c2)cc1C(N)=O [Compound 99, 2-methoxy-5-(2-((2R,5S)-5-methyl-2-(2-(2-methyl-2-azabicyclo[2.2.2]octan-4-yl)benzo[d]thiazol-5-yl)piperidin-1-yl)-2-oxoacetamido)nicotinamide] | > 50 | < 5 | < 75 | < 100 | A (“A” indicates an IC50 ratio greater than or equal to 30 fold)
2 | COc1ncc(NC(=O)C(=O)N2C[C@@H](C)CC[C@@H]2c2ccc3cn([C@@H]4CCN(C)C4)nc3c2)cc1C(N)=O [Compound 102, 2-methoxy-5-(2-((2R,5S)-5-methyl-2-(2-((R)-1-methylpyrrolidin-3-yl)-2H-indazol-6-yl)piperidin-1-yl)-2-oxoacetamido)nicotinamide] | > 50 | < 5 | < 75 | < 100 | A (“A” indicates an IC50 ratio greater than or equal to 30 fold)
3 | COc1ncc(NC(=O)C(=O)N2C[C@@H](C)CC[C@@H]2c2ccc3cn([C@H]4CCN(C)C4)nc3c2)cc1C(N)=O [Compound 103, 2-methoxy-5-(2-((2R,5S)-5-methyl-2-(2-((S)-1-methylpyrrolidin-3-yl)-2H-indazol-6-yl)piperidin-1-yl)-2-oxoacetamido)nicotinamide] | > 50 | < 5 | < 75 | < 100 | A (“A” indicates an IC50 ratio greater than or equal to 30 fold)
4 | CCc1cc(NC(=O)C(=O)N2C[C@@H](C)CC[C@@H]2c2ccc3cn([C@H]4CCCN(C)C4)nc3c2)cnc1N [Compound 104] | > 50 | < 5 | < 75 | < 100 | B (“B” indicates an IC50 ratio greater than or equal to 15 fold but lower than 30 fold)
5 | COc1ncc(NC(=O)C(=O)N2C[C@@H](C)CC[C@@H]2c2ccc3cn(C4CCOCC4)nc3c2)cc1C(N)=O [Compound 107, 2-methoxy-5-[[2-oxo-2-[(2R,5S)-5-methyl-2-(2-tetrahydropyran-4-ylindazol-6-yl)-1-piperidyl]acetyl]amino]pyridine-3-carboxamide] | > 50 | 5 to 50 | 75 to 125 | 100 to 1000 | A (“A” indicates an IC50 ratio greater than or equal to 30 fold)
6 | Cc1cc2[nH]c(C(=O)N3C[C@@H](C)CC[C@@H]3c3ccc4sc(C5CCN(C)CC5)nc4c3)cc2nc1N [Compound 110, (5-amino-6-methyl-1H-pyrrolo[3,2-b]pyridin-2-yl)((2R,5S)-5-methyl-2-(2-(1-methylpiperidin-4-yl)benzo[d]thiazol-5-yl)piperidin-1-yl)methanone] | > 50 | < 5 | < 75 | < 100 | A (“A” indicates an IC50 ratio greater than or equal to 30 fold)
7 | COc1ncc(NC(=O)C(=O)N2C[C@@H](C)CC[C@@H]2c2ccc3cc(C#N)c(C4CCN(C)CC4)nc3c2)cc1C(N)=O [Compound 113, 5-(2-((2R,5S)-2-(3-cyano-2-(1-methylpiperidin-4-yl)quinolin-7-yl)-5-methylpiperidin-1-yl)-2-oxoacetamido)-2-methoxynicotinamide] | > 50 | < 5 | < 75 | < 100 | A (“A” indicates an IC50 ratio greater than or equal to 30 fold)
8 | CCc1cc(NC(=O)C(=O)N2C[C@@H](C)CC[C@@H]2c2ccc3cn([C@H]4CCN(C)C4)nc3c2)cnc1N [Compound 117, N-(6-amino-5-ethylpyridin-3-yl)-2-((2R,5S)-5-methyl-2-(2-((S)-1-methylpyrrolidin-3-yl)-2H-indazol-6-yl)piperidin-1-yl)-2-oxoacetamide] | > 50 | 5 to 50 | < 75 | < 100 | C (“C” indicates an IC50 ratio of less than 15 fold)
9 | CCc1cc(NC(=O)C(=O)N2C[C@H](C)CC[C@@H]2c2ccc3sc([C@H]4C[C@H](N(C)C)C4)nc3c2)cnc1N [Compound 119, N-(6-amino-5-ethyl-3-pyridyl)-2-oxo-2-[(2R,5R)-2-[2-[3-(dimethylamino)cyclobutyl]-1,3-benzothiazol-5-yl]-5-methyl-1-piperidyl]acetamide] | > 50 | > 50 | > 125 | > 1000 | C (“C” indicates an IC50 ratio of less than 15 fold)

More lines, main results first:

Row | IC50 [1] [nM] | IC50 [3] [nM] | IC90 [3] [nM] | Compound | IC50 [2] [nM] | Hap1 MTAP intact/deleted ratio [3]
10 | > 50 | 5 to 50 | 75 to 125 | COc1ncc(NC(=O)C(=O)N2C[C@@H](C)CC[C@@H]2c2ccc3sc([C@H](C)N(C)C)nc3c2)cc1C(N)=O [Compound 96, 2-methoxy-5-[[2-oxo-2-[(2R,5S)-5-methyl-2-[2-[(1S)-1-(dimethylamino)ethyl]-1,3-benzothiazol-5-yl]-1-piperidyl]acetyl]amino]pyridine-3-carboxamide] | < 100 | A (“A” indicates an IC50 ratio greater than or equal to 30 fold)
11 | 5 to 50 | < 5 | < 75 | CCc1cc(NC(=O)C(=O)N2C[C@@H](C)CC[C@@H]2c2ccc3sc(C4CC(C5CN(C)C5)C4)nc3c2)cnc1N (stereo partly drawn) [Compound 100, N-(6-amino-5-ethylpyridin-3-yl)-2-((2R,5S)-5-methyl-2-(2-(3-(1-methylazetidin-3-yl)cyclobutyl)benzo[d]thiazol-5-yl)piperidin-1-yl)-2-oxoacetamide] | < 100 | B (“B” indicates an IC50 ratio greater than or equal to 15 fold but lower than 30 fold)
12 | 5 to 50 | < 5 | < 75 | CCc1cc(NC(=O)C(=O)N2C[C@@H](C)CC[C@@H]2c2ccc3nn([C@@H]4CCN(C)C(C)(C)C4)cc3c2)cnc1N [Compound 108] | < 100 | B (“B” indicates an IC50 ratio greater than or equal to 15 fold but lower than 30 fold)
13 | 5 to 50 | < 5 | < 75 | CCc1cc(NC(=O)C(=O)N2C[C@@H](C)CC[C@@H]2c2ccc3cn(C4CCN(C)C(C)(C)C4)nc3c2)cnc1N (stereo partly drawn) [Compound 109, N-(6-amino-5-ethyl-3-pyridyl)-2-oxo-2-[(2R,5S)-5-methyl-2-[2-(1,2,2-trimethyl-4-piperidyl)indazol-6-yl]-1-piperidyl]acetamide] | < 100 | B (“B” indicates an IC50 ratio greater than or equal to 15 fold but lower than 30 fold)
14 | 5 to 50 | < 5 | < 75 | CCc1cc(NC(=O)C(=O)N2C[C@@H](C)CC[C@@H]2c2ccc3cn([C@@H]4CCN(C)C4)nc3c2)cnc1N [Compound 112, N-(6-amino-5-ethylpyridin-3-yl)-2-((2R,5S)-5-methyl-2-(2-((R)-1-methylpyrrolidin-3-yl)-2H-indazol-6-yl)piperidin-1-yl)-2-oxoacetamide] | < 100 | B (“B” indicates an IC50 ratio greater than or equal to 15 fold but lower than 30 fold)
